Laboratory results reported in patent US20060083748A1, “Calixarenes for use as excipient for an active substance” (priority 2002, published 2006).
Like-named read-outs stand apart in the source and are kept apart here.

What was measured:
[1] = Membrane permeation, traditional artificial membrane without hydrophilic pores (Standard); conditions: artificial membrane without hydrophilic pores (transcellular path); 125 or 250 μM, Tris-buffer pH 7.4, 16 hours
Description: (§1) The combination of these two test systems allows the study of the permeability of a plurality of active ingredients independently of the type of transport which they prefer.

[2] = Membrane permeation, PAMPORE system (hydrophilic pores in the lipid layer); conditions: hydrophilic pores in the lipid layer (paracellular path); 125 or 250 μM, Tris-buffer pH 7.4, 16 hours
Description: as §1

[3] = cited from earlier work
[4] = tested on: Varizella zoster; conditions: cited from earlier work
[5] = tested on: Epstein-Barr; conditions: cited from earlier work
[6] = tested on: herpes simplex; conditions: cited from earlier work
[7] = tested on: Herpes simplex 1, herpes simplex 2, varicella zoster; conditions: cited from earlier work
[8] = AIDS, chemotherapy; i.v. administration; cited from earlier work
[9] = tested on: CMV; conditions: in achievable concentrations; cited from earlier work

In the case of “5,11,17,23-tetrasulphonic acid calix[4]arenes”, the “Membrane permeation (%) Standard” value [1] is reported as <15% and the “Membrane permeation (%) PAMPORE” value [2] is reported as 100%.

In the case of Nc1nc2c(ncn2COCCO)c(=O)[nH]1 [aciclovir], the t/2 ([3]; anuria (renal insufficiency)) is given as 18 h, the t/2 ([3]; normal renal function) is given as 3 h and the “Effect on post-herpetic neuralgia” value ([4]; in vivo) is given as “no clear effect”. The “Effect on healing in varizella zoster infections” value ([4]; symptoms, lesions, pain) was “faster healing”, the “Activity against Epstein-Barr” value [5] was “only in vitro” and the “Effect in recurring mucocutaneous herpes infections” value ([6]; chron. suppressive therapy) was “reduces rate of attack”. The “Effect in mucocutaneous herpes simplex infections” value ([6]; mucocutaneous herpes simplex infections) was “overall moderate benefit”, the “Activity (order of activity against viruses)” value [7] was “Herpes simplex 1>herpes simplex 2>varicella zoster” and the “Effect in immune suppressed patients” value [8] was “prevents dissemination, faster healing”. The “Activity against CMV” value [9] was “not active”.

With “Tetramethyltetramethyl resorcin[4]arenes” the “Membrane permeation (%) Standard” value [1] was <15% and the “Membrane permeation (%) PAMPORE” value [2] was 95%.

For Hexasulphonic acid calix[6]arenes, the “Membrane permeation (%) Standard” value [1] was 0% and the “Membrane permeation (%) PAMPORE” value [2] was 100%.
